Test systems include MDA-N; OVCAR-3; SF-539; NCI-H23; M14; CAKI-1; HL-60; TK-10; UACC-62; PC-3; SN12C; SF-295; SNB-75; SK-MEL-5; MDA-MB-435; EKVX; UACC-257; T47D; SW-620; OVCAR-5.
Common to all, as to assay: NCI anticancer screen, dose series, 48 h

Here are results for four molecules from ChEMBL document CHEMBL1201862, “PubChem BioAssay data set” (2004).

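Test compounds were applied to cells in 96-well plates for 48 hours at 5 doses. GI50 marks 50% less growth.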 Active and inactive are the calls of the source. Rule as the data show it: active = GI50 up to about 1.1 µM and inactive = higher.

With `C=C(Cl)[C@@](Cl)(CBr)CC[C@@H](Br)C(C)(C)Cl`, the GI50 in the assay with MDA-N is 0.255 µM (active); in the assay with OVCAR-3, 0.506 µM (active); in the assay on SF-539, 0.141 µM (active); in the assay with NCI-H23 it was 8.02 µM (inactive); with M14, 10.8 µM (inactive); in the assay on CAKI-1, 0.467 µM (active). The GI50 with HL-60 is 0.3 µM (active); in the assay on TK-10 it was 0.269 µM (active); with UACC-62, 0.745 µM (active); in the assay with PC-3, 0.555 µM (active); with SN12C, 2.11 µM (inactive); in the assay on SF-295 it was 0.207 µM (active). Also, the GI50 is 0.24 µM (active) in the assay with SNB-75; 2.67 µM (inactive) in the assay with SK-MEL-5; 1.4 µM (inactive) with MDA-MB-435; 2.97 µM (inactive) with EKVX; 0.557 µM (active) with UACC-257; 0.153 µM (active) in the assay with T47D. In addition, the GI50 in the assay with SW-620 was 0.321 µM (active); with OVCAR-5, 1.59 µM (inactive).
For `O=C1NN(Cc2ccccc2)C(=O)N2CCC[C@@H]12`, the GI50 in the assay on MDA-N, in the assay with OVCAR-3, in the assay with SF-539, with NCI-H23, in the assay with M14 and in the assay on CAKI-1 was > 100 µM (inactive) each time. In addition, the GI50 with HL-60, in the assay with TK-10, with UACC-62, with PC-3, in the assay with SN12C and with SF-295 was > 100 µM (inactive) in each case. In addition, the GI50 with SNB-75 is 0.0179 µM (active); in the assay with SK-MEL-5, > 100 µM (inactive); with MDA-MB-435, > 100 µM (inactive); in the assay on EKVX, > 100 µM (inactive); in the assay with UACC-257, > 100 µM (inactive); in the assay with T47D, > 100 µM (inactive). In addition, the GI50 in the assay with SW-620 and in the assay on OVCAR-5 was > 100 µM (inactive) in each case.
`O=C1CNc2cc(N3CCN(c4cccc(C(F)(F)F)c4)CC3)ccc2N1`: the GI50 in the assay on MDA-N was 84.5 µM (inactive); in the assay on OVCAR-3 it was 27.5 µM (inactive); in the assay with SF-539 it was 57.3 µM (inactive); in the assay on NCI-H23 it was 39.9 µM (inactive); with M14, 18 µM (inactive); in the assay on CAKI-1 it was > 100 µM (inactive). Moreover, the GI50 in the assay on HL-60 is 19.9 µM (inactive); with TK-10, 69.2 µM (inactive); in the assay on UACC-62, 35.1 µM (inactive); with PC-3, 44.4 µM (inactive); in the assay with SN12C it was > 100 µM (inactive); in the assay with SF-295, 24.3 µM (inactive). In addition, the GI50 in the assay on SNB-75 was 84.7 µM (inactive); with SK-MEL-5, 18.9 µM (inactive); in the assay with MDA-MB-435 it was 95.5 µM (inactive); in the assay with EKVX it was 91 µM (inactive); in the assay with UACC-257 it was 37 µM (inactive); in the assay with T47D it was 32.3 µM (inactive). Moreover, the GI50 was 51.2 µM (inactive) in the assay on SW-620 and 68.5 µM (inactive) in the assay with OVCAR-5.
`COc1ccc(CC2C3=C(CCCC3)CCN2C)cc1` (stereo not given): the GI50 with MDA-N is > 100 µM (inactive); in the assay on OVCAR-3 it was > 100 µM (inactive); with SF-539, > 100 µM (inactive); in the assay with NCI-H23 it was > 100 µM (inactive); with M14, 44.4 µM (inactive); in the assay with CAKI-1, > 100 µM (inactive). Besides, the GI50 in the assay on HL-60 is 29.4 µM (inactive); with TK-10, > 100 µM (inactive); with UACC-62, 65.6 µM (inactive); with PC-3 it was > 100 µM (inactive); in the assay on SN12C, > 100 µM (inactive); in the assay with SF-295, > 100 µM (inactive). The GI50 with SNB-75 is 55.2 µM (inactive); in the assay with SK-MEL-5, > 100 µM (inactive); with MDA-MB-435, > 100 µM (inactive); in the assay on EKVX, > 100 µM (inactive); in the assay with UACC-257, > 100 µM (inactive); in the assay on T47D, 69.2 µM (inactive). In addition, the GI50 in the assay with SW-620 and with OVCAR-5 was > 100 µM (inactive) throughout.
